Structures are written as SMILES.

Experimental findings from patent US20040047894A1, “Preparation for improved dietary utilisation” (priority 2001, published 2004) are described below.

Test [1] deals with ICR mice. The settings on record: 1.0% calendic acid (ethyl ester) in feed, six weeks.
Description: 5-6-week-old male and female ICR mice were obtained from Charles River. 18 animals (9 m/w) were randomly assigned to each experimental group. The animals were raised in groups of 3 animals at 20° C. in a 12-hour light/dark cycle. […] It comprised the following components: sucrose, casein, corn starch, DL-methionin, 5.5% of a mixture of vegetable oils (so that the feed comprised 0.6% linolenic acid and 3% linoleic acid of the total lipids), mineral and vitamin mix and Ethoxyquin (0.1 g/kg). In the experimental feed, the amount of vegetable oils was replaced by the corresponding amount of calendic acid. Calendic acid was present here as the ethyl ester and was obtained from calendula oil (BiRo, Sommerschenburg, Germany).
After a one-week adaptation period on control feed, a six-week experiment was carried out. Body weight and feed intake were measured weekly. At the end of the study the animals were killed and viscera and organs such as liver, heart and lungs were removed. The empty carcasses were frozen in liquid nitrogen, homogenized, and the contents of fat, protein and ash were determined by standard methods.
The subject of test [2] is ICR mice. The test can be described thus: Four-week feeding experiment: bodyweight, feed intake and feed utilization. Format: in vivo. The settings on record: four weeks.

For `CCCCC\C=C/C=C/C=C/CCCCCCC(=O)O` [Calendic acid, calendic acid], the “changes in body weight versus control group” value in the test with ICR mice [1] (ICR mice) was “comparable”. In addition, the “fat content in the experimental animals” value in the test with ICR mice [1] (ICR mice, effect greater in male than in female animals) is “significantly decreased the fat content”. The “Body fat content (in % of body composition), female animals” value in the test on ICR mice [1] (female ICR mice, control 10.3% fat) is listed as 9.5% fat. For the same molecule, the “Body fat content (in % of body composition), male animals” value with ICR mice [1] (male ICR mice, control 12.2% fat) is 8.0% fat. For the same molecule, the “feed intake, male animals” value in the test on ICR mice [2] (male ICR mice, calendula oil 0.5-2.0% in feed) is given as “dose-dependent effect towards reduced feed intake”. The “feed utilization, male animals” value in the test with ICR mice [2] (male ICR mice, calendula oil 0.5-2.0% in feed, dose-dependent, FIG. 3) is on record as “significantly improved”. The weight gain entry with ICR mice [2] (male and female ICR mice, calendula oil 0.5-2.0% in feed, FIG. 1) is “without affecting weight gain”. The feed intake entry in the test with ICR mice [2] (male and female ICR mice, corn oil in feed replaced by crude calendula oil 0.5, 1.0 or 2.0% (approx. 62% calendic acid as triglyceride), FIG. 2) is “reduced feed intake”.
